Assay results reported in patent publication US20130296311A1, “INHIBITORS OF HCV NS5A” (PRESIDIO PHARMACEUTICALS, INC., priority 2010, published 2013).
Where two headings read alike, the source gives them in different places.

Test system: HCV 1b_Huh-Luc/Neo-ET cell line persistently expressing a bicistronic genotype 1b replicon in Huh 7 cells
Experiment: HCV replicon assay (luciferase readout, 72 h)
Format: cell-based, HCV genotype 1b
Settings: Hepatitis C virus
Method in brief: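 Huh 7 cells carrying a bicistronic genotype 1b luciferase/neo replicon received compound in triplicate the day after plating. After 72 h, replicon levels were read as Bright-Glo luciferase activity, expressed as % of control; EC50 was fitted with a four-parameter logistic and determined several times.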

[1] = Huh-7, 72 h, read-out: Inhibition of HCV genotype 1b
[2] = Huh-7, read-out: Inhibition of HCV genotype 1b

| Compound | EC50 [1] [nM] | EC50 [2] [nM] |
| --- | --- | --- |
| COC(=O)N[C@H](C(=O)N1CCC[C@H]1c1ncc(-c2ccc(C#Cc3ccc4nc([C@@H]5CCCN5C(=O)[C@@H](NC(=O)OC)[C@@H](C)O)[nH]c4c3)cc2)[nH]1)[C@@H](C)O [Compound 863] | < 1 | – |
| COC(=O)N[C@@H](C(=O)N1CCC[C@H]1c1ncc(-c2ccc(C#Cc3ccc(-c4cnc([C@@H]5CCCN5C(=O)[C@@H](c5ccccc5)N(C)C)[nH]4)cc3)cc2)[nH]1)c1ccccc1 [Compound 174] | < 1 | – |
| COC(=O)N[C@H](C(=O)N1CCC[C@H]1c1ncc(-c2ccc(C#Cc3ccc(-c4cnc([C@@H]5CCCN5C(=O)[C@@H](NC(=O)N5CCN(CCO)CC5)c5ccccc5)[nH]4)cc3)cc2)[nH]1)C(C)C [Compound 990] | 1 to 9.9 | – |
| CC(C)[C@H](NC(=O)[C@H](NC(=O)OC(C)(C)C)c1ccccc1)c1ncc(-c2ccc(C#Cc3ccc(-c4cnc([C@@H]5CCCN5C(=O)[C@H](NC(=O)OC(C)(C)C)c5ccccc5)[nH]4)cc3)cc2)[nH]1 [Compound 281] | 1 to 9.9 | – |
| O=C(N[C@@H](C(=O)N1CCC[C@H]1C(=O)Nc1ccc(C#Cc2ccc(-c3cnc([C@@H]4CCCN4C(=O)[C@H](NC(=O)C4CC4)c4ccccc4)[nH]3)cc2)cc1)c1ccccc1)C1CC1 [Compound 166] | < 1 | – |
| COC(=O)N[C@H](C(=O)N1CCC[C@H]1c1ncc(-c2ccc(C#Cc3ccc(-c4cnc([C@@H]5CCCN5C(=O)[C@H](NC(=O)OC)c5cccs5)[nH]4)cc3)cc2)[nH]1)[C@@H](C)OC [Compound 1213] | – | < 1 |
| CC[C@H](C)[C@H](NC(=O)OC)C(=O)N1CCC[C@H]1c1ncc(-c2ccc(C#Cc3ccc(-c4cnc([C@@H]5CCCN5C(=O)[C@@H](NC(=O)OC)C5CCOCC5)[nH]4)cc3)cc2)[nH]1 [Compound 1220] | – | < 1 |
| CCN(CC)[C@@H](C(=O)N1CCC[C@H]1c1ncc(C#Cc2ccc(C#Cc3cnc([C@@H]4CCCN4C(=O)[C@H](NC(=O)OC)c4ccccc4)[nH]3)cc2)[nH]1)c1ccccc1 [Compound 315] | < 1 | – |
| COC(=O)N[C@H](C(=O)N1CCC[C@H]1c1ncc(-c2ccc(C#Cc3ccc(-c4cnc([C@@H]5CCCN5C(=O)[C@@H](c5ccccc5)N5CCCC5)[nH]4)cc3)cc2)[nH]1)C(C)C [Compound 984] | < 1 | – |
| CN1CCN(C(=O)N[C@@H](C(=O)N2CCC[C@H]2c2ncc(-c3ccc(C#Cc4ccc(-c5cnc([C@@H]6CCCN6C(=O)[C@H](NC(=O)C6CC6)c6ccccc6)[nH]5)cc4)cc3)[nH]2)c2ccccc2)CC1 [Compound 238] | < 1 | – |
| CC(C)[C@H](NC(=O)N1CC[C@H](O)C1)C(=O)N1CCC[C@H]1c1ncc(-c2ccc(C#Cc3ccc(-c4cnc([C@@H]5CCCN5C(=O)[C@@H](NC(=O)N5CC[C@H](O)C5)C(C)C)[nH]4)cc3)cc2)[nH]1 [Compound 988] | 10 to 999 | – |
| O=C(N[C@@H](C(=O)N1CCC[C@H]1c1ncc(C#Cc2ccc(-c3cnc([C@@H]4CCCN4C(=O)[C@H](NC(=O)N4CCOCC4)c4ccccc4)[nH]3)cc2)[nH]1)c1ccccc1)N1CCOCC1 [Compound 102] | 1 to 9.9 | – |
| COC(=O)N[C@H](C(=O)N1CCC[C@H]1c1ncc(-c2ccc(C#Cc3ccc(-c4cnc([C@@H]5CCCN5C(=O)[C@@H](NC(=O)OC)C5CCOCC5)[nH]4)cc3)cc2)[nH]1)C(C)C [Compound 1219] | – | < 1 |
| COC(=O)N[C@H](C(=O)N1CCC[C@H]1c1ncc(-c2ccc(C#Cc3ccc4nc([C@@H]5CCCN5C(=O)[C@@H](NC(=O)OC)[C@@H](C)OC)[nH]c4c3)cc2)[nH]1)C(C)C [Compound 1242] | – | < 1 |
| COC[C@H](NC(=O)OC)C(=O)N1CCC[C@H]1c1ncc(-c2ccc(C#Cc3ccc4nc([C@@H]5CCCN5C(=O)[C@H](COC)NC(=O)OC)[nH]c4c3)cc2)[nH]1 [Compound 1037] | < 1 | – |
| COC(=O)N[C@H](C(=O)N1CCC[C@H]1c1ncc(-c2ccc(C#Cc3ccc(-c4cnc([C@@H]5CN(C(=O)OC)CCN5C(=O)[C@@H](NC(=O)OC)C(C)C)[nH]4)cc3)cc2)[nH]1)C(C)C [Compound 1204] | – | < 1 |
| COC(=O)N[C@H](C(=O)N1CCC[C@H]1c1ncc(-c2ccc(C#Cc3ccc(-c4cnc([C@@H]5CCCN5C(=O)[C@@H](c5ccccc5)N5CCN(CCO)CC5)[nH]4)cc3)cc2)[nH]1)C(C)C [Compound 958] | < 1 | – |
| COC(=O)N[C@H](C(=O)N1CCC[C@H]1c1ncc(-c2ccc(C#Cc3ccc(-c4cnc([C@@H]5CCCN5C(=O)[C@@H](NC(=O)OC)C(C)(C)O)[nH]4)cc3)cc2)[nH]1)C(C)C [Compound 994] | < 1 | – |
| CC[C@@H](C)[C@H](NC(=O)OC)C(=O)N1CCC[C@H]1c1ncc(-c2ccc(C#Cc3ccc4nc([C@@H]5CCCN5C(=O)[C@@H](NC(=O)OC)[C@H](C)CC)[nH]c4c3)cc2)[nH]1 [Compound 1024] | < 1 | – |
| COC(=O)N[C@H](C(=O)N1CCC[C@H]1c1nc2c([nH]1)-c1ccc(C#Cc3ccc4nc([C@@H]5CCCN5C(=O)[C@@H](NC(=O)OC)C(C)C)[nH]c4c3)cc1CC2)C(C)C [Compound 1101] | < 1 | – |
| CC(C)[C@@H](NC(=O)OC(C)(C)C)C(=O)N1CCC[C@H]1C(=O)NCCc1ccc(C#Cc2cnc([C@@H]3CCCN3C(=O)[C@H](NC(=O)OC(C)(C)C)C(C)C)[nH]2)cc1 [Compound 126] | 10 to 999 | – |

| Compound | EC50 [1] [nM] | EC50 [2] [nM] |
| --- | --- | --- |
| COC(=O)N[C@@H](C(=O)N1CCC[C@H]1c1ncc(-c2ccc(C#Cc3ccc(-c4cnc([C@@H]5CCCN5C(=O)[C@H](NC(=O)N5CCC[C@H](O)C5)c5ccccc5)[nH]4)cc3)cc2)[nH]1)c1ccccc1 [Compound 263] | < 1 | – |
| O=C(N[C@@H](C(=O)N1CCC[C@H]1c1ncc(-c2ccc(C#Cc3ccc(-c4cnc([C@@H]5CCCN5C(=O)[C@H](NC(=O)N5CCOCC5)c5ccccc5)[nH]4)cc3)cc2)[nH]1)c1ccccc1)C1CC1 [Compound 239] | < 1 | – |
| COC(=O)N[C@@H](C(=O)N1CCC[C@H]1c1ncc(-c2ccc(C#Cc3ccc(-c4cnc([C@@H]5CCCN5C(=O)[C@H](NC(=O)N5CCS(=O)(=O)CC5)c5ccccc5)[nH]4)cc3)cc2)[nH]1)c1ccccc1 [Compound 253] | < 1 | – |
| COC(=O)N[C@H](C(=O)N1CCC[C@H]1c1ncc(-c2ccc(C#Cc3ccc(-c4cnc([C@H](C)NC(=O)[C@H](C(C)C)N(C)C)[nH]4)cc3)cc2)[nH]1)C(C)C [Compound 981] | 10 to 999 | – |
| COC(=O)N[C@@H](C(=O)N1CCC[C@H]1c1ncc(-c2ccc(C#Cc3ccc(-c4cnc([C@@H]5CCCN5C(=O)[C@@H](c5ccccc5)N5CCOCC5)[nH]4)cc3)cc2)[nH]1)c1ccccc1 [Compound 185] | < 1 | – |
| COC(=O)N[C@H](C(=O)N1CCCC[C@H]1c1ncc(-c2ccc(C#Cc3ccc4nc([C@@H]5CCCN5C(=O)[C@@H](NC(=O)OC)C(C)C)[nH]c4c3)cc2)[nH]1)C(C)C [Compound 1032] | < 1 | – |
| COC(=O)N[C@H](C(=O)N[C@@H](C)c1ncc(-c2ccc(C#Cc3ccc(-c4cnc([C@H](C)NC(=O)[C@@H](NC(=O)OC)C(C)C)[nH]4)cc3)cc2)[nH]1)C(C)C [Compound 951] | < 1 | – |
| CCN(CC)[C@@H](C(=O)N1CCC[C@H]1c1ncc(-c2ccc(C#Cc3ccc(-c4cnc([C@@H]5CCCN5C(=O)[C@H](NC(=O)OC)c5ccccc5)[nH]4)cc3)cc2)[nH]1)c1ccccc1 [Compound 175] | < 1 | – |
| COC(=O)N[C@H](C(=O)N1CCC[C@H]1c1nc2ccc(C#Cc3ccc4c(ccc5nc([C@@H]6CCCN6C(=O)[C@@H](NC(=O)OC)C(C)C)[nH]c54)c3)cc2[nH]1)C(C)C [Compound 1273] | – | < 1 |
| O=C(N[C@@H](C(=O)N1CCC[C@H]1c1ncc(C#Cc2ccc(-c3ccc(-c4cnc([C@@H]5CCCN5C(=O)[C@H](NC(=O)N5CC[C@@H](O)C5)c5ccccc5)[nH]4)cc3)cc2)[nH]1)c1ccccc1)N1CC[C@@H](O)C1 [Compound 763] | < 1 | – |
| COC(=O)N[C@H](C(=O)N1CCN(C(=O)OC)C[C@H]1c1ncc(-c2ccc(C#Cc3ccc(-c4cnc([C@@H]5CCCN5C(=O)[C@H](NC(=O)OC)c5ccccc5)[nH]4)cc3)cc2)[nH]1)C(C)C [Compound 1206] | – | < 1 |
| CC(C)OC(=O)N[C@@H](C(=O)N1CCC[C@H]1c1ncc(-c2ccc(C#Cc3ccc(-c4cnc([C@@H]5CCCN5C(=O)[C@H](NC(=O)OC(C)C)c5ccccc5)[nH]4)cc3)cc2)[nH]1)c1ccccc1 [Compound 227] | < 1 | – |
| CC(=O)N[C@@H](C(=O)N1CCC[C@H]1c1ncc(C#Cc2ccc(C#Cc3cnc([C@@H]4CCCN4C(=O)[C@H](NC(C)=O)c4ccccc4)[nH]3)cc2)[nH]1)c1ccccc1 [Compound 306] | < 1 | – |
| COC(=O)N[C@H](C(=O)N1CCC[C@H]1c1ncc(-c2ccc(C#Cc3ccc(-c4cnc([C@H](C)NC(=O)[C@@H](C(C)C)N(C)C)[nH]4)cc3)cc2)[nH]1)C(C)C [Compound 982] | 10 to 999 | – |
| CC[C@H](C)[C@H](NC(=O)OC)C(=O)N1CCC[C@H]1c1ncc(-c2ccc(C#Cc3ccc4nc([C@@H]5CCCN5C(=O)[C@@H](NC(=O)OC)[C@@H](C)OC)[nH]c4c3)cc2)[nH]1 [Compound 1248] | – | < 1 |
| COC(=O)N[C@H](C(=O)N1CCC[C@H]1c1nc(C)c(C#Cc2ccc3cc(-c4cnc([C@@H]5CCCN5C(=O)[C@@H](NC(=O)OC)[C@@H](C)OC)[nH]4)ccc3c2)[nH]1)C1CCCC1 [Compound 1266] | – | < 1 |
| CC(C)[C@H](NC(=O)N1CCCC1)C(=O)N1CCC[C@H]1c1ncc(-c2ccc(C#Cc3ccc(-c4cnc([C@@H]5CCCN5C(=O)[C@@H](NC(=O)N5CCCC5)C(C)C)[nH]4)cc3)cc2)[nH]1 [Compound 288] | > 1000 | – |
| COC(=O)N[C@@H](C(=O)N1CCC[C@H]1c1ncc(-c2ccc(C#Cc3ccc(-c4cnc([C@@H]5CCCN5C(=O)[C@H](NC(=O)N5CCC(O)CC5)c5ccccc5)[nH]4)cc3)cc2)[nH]1)c1ccccc1 [Compound 241] | < 1 | – |
| COC(=O)N[C@@H](C(=O)N1CCC[C@H]1c1ncc(-c2ccc(C#Cc3ccc(-c4cnc([C@@H]5CCCN5C(=O)N5CCOCC5)[nH]4)cc3)cc2)[nH]1)c1ccccc1 [Compound 198] | < 1 | – |
| CC(C)[C@@H](NC(=O)OC(C)(C)C)C(=O)N1CCC[C@H]1C(=O)NCc1ccc(C#Cc2cnc([C@@H]3CCCN3C(=O)[C@H](NC(=O)OC(C)(C)C)C(C)C)[nH]2)cc1 [Compound 120] | 10 to 999 | – |
